From patent US20230331815A1 (priority 2020, published 2023)

Legend:
[1] = test system: SARS-CoV-2; details: cited from earlier work
[2] = test system: HSPG receptor; test: hLF cell membrane localization, confocal microscopy of VeroE6/T cells; assay type: cell-based, African green monkey; details: co-incubation of hLF and heparin
Procedure: To visualize cell membrane localization of human lactoferrin (hLF), VeroE6/T cells (0.75×10^5 cells/well) were chilled at 4° C. for 1 hr, incubated with 2.5 µM of hLF. Cells were washed, fixed using 4% PFA (Invitrogen), stained with anti-hLF antibody, and fluorescent image was taken under confocal microscope (FIG. 10, middle row). Cell nuclei were visualized using DAPI (FIG. 10, bottom row). To visualize the cell surface and nuclei at the same time, the confocal images above (i.e., FIG. 10, middle and bottom rows) were merged and are presented in FIG. 10, top row. […] To see the effect of heparin on the binding of hLF to the cell surface (specifically the HSPG receptor), cells were co-incubated with hLF and heparin (H), and the confocal image was taken (FIG. 10, right column).

Substance	IC50 [1] [nM]	effect on binding of hLF to the cell surface HSPG receptor [2]
Ivermectin	2200 to 2800	–
heparin [reference compound]	–	inhibited
